Experimental findings from paper PMC3936431 (Biomolecules & Therapeutics, 2014) are described below.

As usually defined, the Tmax is the time at which the peak concentration occurs. In general, AUC(0-inf) refers to the area under the concentration-time curve extrapolated to infinity. A word on the AUC(0-t): it is exposure summed from dosing to a finite time, without extrapolation to infinity. Low readings indicate less exposure, high ones more exposure.

Data set [1] in a line: Stability in stock solutions and plasma samples. Type of data set: physicochemical, rabbits. The conditions noted are these: for stock solution stability, mean %change: room temperature 12 h and 4°C 30 days.
The nature of data set [2]: Pharmacokinetic studies after single intravenous or rectal administration. The settings on record: for Tmax / AUC(0-inf) / AUC(0-t): New Zealand white, rabbit, in vivo; for AUC(0-inf): AUC0-∞; for AUC(0-inf) / AUC(0-t) / AUC0-∞ / AUC0–30h: rabbits, plasma; for AUC(0-t): AUC0–30h.
Data set [3] in a line: In vitro release, USP paddle method, phosphate buffer pH 7.4. The settings on record: in the first 30 min; paddle 100 rpm, phosphate buffer pH 7.4, 37°C. Type of data set: physicochemical.
The mark [4] stands for this setting: 100 mg/kg, rectal administration (suppository).
Where [5] appears, read: iv, 50 mg/kg, intravenous administration.
Where [6] appears, read: intravenous administration, 50 mg/kg.
Where [7] appears, read: rectal administration (suppository), 100 mg/kg.

As for `CC[C@@]1(O)C(=O)OCc2c1cc1n(c2=O)Cc2cc3ccccc3nc2-1` [IS, camptothecin], the stock solution stability result in data set [1] (4°C for 30 days) and in data set [1] (room temperature for 12 h) was “stable” in each case. For the same compound, the “stock solution stability, mean %change” value in data set [1] is given as < 7.7%.

For `CCc1c2c(nc3ccc(OC(=O)N4CCC(N5CCCCC5)CC4)cc13)-c1cc3c(c(=O)n1C2)COC(=O)[C@]3(O)CC` [irinotecan, 7-ethyl-10-[4-(1-piperidino)-1-piperidino]-carbonyloxy-camptothecin], the Tmax in data set [2] (100 mg/kg) turned out to be 4 h; in data set [2] (iv, 50 mg/kg), 0.25 h. The AUC(0-inf) in data set [2] (setting [4]) worked out at 41600 ± 7200 ng·h/mL; in data set [2] (setting [5]), 82300 ± 9500 ng·h/mL. The AUC(0-t) in data set [2] (setting [4]) came to 32200 ± 6200 ng·h/mL; in data set [2] (setting [5]), 71300 ± 8800 ng·h/mL. The “AUC0-∞” value in data set [2] (setting [6]) worked out at 82330 ± 9470 ng·h/mL; in data set [2] (setting [7]) it was 41620 ± 7240 ng·h/mL. Moreover, the “AUC0–30h” value in data set [2] (setting [6]) turned out to be 71310 ± 8750 ng·h/mL; in data set [2] (setting [7]), 32150 ± 6150 ng·h/mL. Besides, the drug released in data set [3] worked out at 95%. Also, the stock solution stability entry in data set [1] (4°C for 30 days) and in data set [1] (room temperature for 12 h) was “stable” each time. The “stock solution stability, mean %change” value in data set [1] was < 7.7%.
